For series [1] the following is noted: literature; cited from earlier work.
For series [2], the system named is Gram-positive and Gram-negative bacteria. The following applies: literature; cited from earlier work.
The conditions of series [3]: literature; cited from earlier work. This is another data set of the same source.
The test system of a further series is eukaryotic parasites. Particulars: literature; cited from earlier work.
Series [4] deals with Streptococcus pyogenes C 203. Briefly: In vivo antibacterial activity, experimental pulmonary infection in mouse. Particulars: for ED50: Streptococcus pyogenes, C203, ip, 240 h, intraperitoneal single dose, read-out: average protecting dose PD50; for in vivo activity, pulmonary infection (in words): administered 24 hours before the infection. As to the method:
The in vivo antibacterial activity of the compounds of formula (I), expressed as average protecting dose PD50 (mg/Kg), was evaluated by means of experimental pulmonary infection induced in mouse by Streptococcus pyogenes (example 23).
b) In vivo antibacterial activity
The therapeutical effectiveness, expressed as average protecting dose (PD50), of the considered compounds of formula (I) was evaluated by experimental pulmonary infection induced in mouse by Streptococcus pyogenesC 203.
Charles River albin mice (strain CD 1), of body weight comprised between 23-35 g, stabulated in groups of 6 for cage and normo-feeded with standard diet and water ad libitum were used. A suspension of S. pyogenes C 203 (corresponding about to 10^8 UFC) in tryptose broth (0.05 ml) was intranasally administered to each mouse anesthesized with a mixture of ethyl ether and chloroform.
The compounds under examination were intraperitoneally administered as a single dose, in 0.2% Tween suspension, 24 hours before or 1 hour after the infection.
Mice mortality observation was prolonged up to 10 days from the infection.
PD50 calculation, expressed as (mg/Kg), was carried out through the analysis of probit.
In vivo antibacterial activity, expressed as average protecting dose PD50 (mg/Kg), 24 hours before and 1 hour after the experimental pulmonary infection induced in mouse by Streptococcus pyogenes C 203, of the compounds 4, 10, 16-19, 21, 23, 26-27, 29-30, 33-35 and 38 and of the reference compounds Roxithromycin and Clarithromycin.

The subject of series [5] is Staphylococcus aureus PV 14. Briefly: In vitro antibacterial activity, MIC, broth microdilution. Particulars: Staphylococcus aureus, PV14; S. aureus PV 14; MHB; 37° C., 18 hours; read-out: minimum inhibiting concentration MIC. It counts as cell-based. In short, it runs like this:
(§1)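 Compounds were diluted in double series in Mueller Hinton Broth following NCCLS microdilution methodology. Streptococcal strains received medium containing 5% horse serum. After incubating at 37 °C for 18 hours, the lowest concentration blocking growth was recorded as MIC.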
(Broth dilution looks for growth in wells or tubes with falling amounts of substance.)

The subject of series [6] is Streptococcus pyogenes A 26. The description is as above. The following applies: Streptococcus pyogenes, A26; S. pyogenes A 26; MHB + 5% horse serum; 37° C., 18 hours; read-out: minimum inhibiting concentration MIC. It is filed as cell-based. The gist of the method:
as §1

Series [7] relates to Streptococcus pyogenes C 203. Described as above. Particulars: Streptococcus pyogenes, C203; S. pyogenes C 203; MHB + 5% horse serum; 37° C., 18 hours; read-out: minimum inhibiting concentration MIC. It counts as cell-based. The gist of the method:
as §1

Series [8] concerns Streptococcus pneumoniae BS 3. Described as above. It is filed as cell-based. Particulars: Streptococcus pneumoniae, BS3; S. pneumoniae BS 3; MHB + 5% horse serum; 37° C., 18 hours; read-out: minimum inhibiting concentration MIC. The gist of the method: as §1
The test system of series [9] is Streptococcus pneumoniae BS 4. The series is described as above. It counts as cell-based. The following applies: Streptococcus pneumoniae, BS4; S. pneumoniae BS 4; MHB + 5% horse serum; 37° C., 18 hours; read-out: minimum inhibiting concentration MIC. In short, it runs like this: as §1
For series [10], the system named is Klebsiella pneumoniae ZC 2. The description is as above. It counts as cell-based. Particulars: Klebsiella pneumoniae, ZC2; K. pneumoniae ZC 2; MHB; 37° C., 18 hours; read-out: minimum inhibiting concentration MIC. In short, it runs like this: as §1
For series [11], the system named is Escherichia coli ATCC 25922. Described as above. It is filed as cell-based. The following applies: Escherichia coli, ATCC25922; E. coli ATCC 25922; MHB; 37° C., 18 hours; read-out: minimum inhibiting concentration MIC. In short, it runs like this:
as §1

Series [12] concerns Enterococcus faecalis ATCC 29212. Described as above. It is filed as cell-based. Particulars: Enterococcus faecalis, ATCC29212; E. faecalis ATCC 29212; MHB; 37° C., 18 hours; read-out: minimum inhibiting concentration MIC. The gist of the method: as §1

The text below walks through data of patent US5847092A (Zambon Group S.p.A., priority 1994, dated 1998).

Converted amounts (≈) assume the structure as drawn. Read-outs that look alike come from different tables or passages of the source.

`CC[C@H]1OC(=O)[C@H](C)[C@@H](O[C@H]2C[C@@](C)(OC)[C@@H](O)[C@H](C)O2)[C@H](C)[C@@H](O[C@@H]2O[C@H](C)C[C@H](N(C)C)[C@H]2O)[C@](C)(O)C[C@@H](C)C(=NOCCN(C)C)[C@H](C)[C@@H](O)[C@]1(C)O` [Erythromycin A 9-[0-[(2-dimethylamino)ethyl]oxime]]: the “pharmacokinetic properties / bioavailability (in words)” value in series [1] was “better pharmacokinetic properties”. The “spectrum of activity in vitro (in words)” value in [2] is “comparable to that of Erythromycin A”. Also, the “stability to the acids (in words)” value in series [3] is listed as “superior stability to the acids”.

Consider `CC[C@H]1OC(=O)[C@H](C)[C@@H](O[C@H]2C[C@@](C)(OC)[C@@H](O)[C@H](C)O2)[C@H](C)[C@@H](O[C@@H]2O[C@H](C)C[C@H](N(C)C)[C@H]2O)[C@](C)(O)C[C@@H](C)C(=O)[C@H](C)[C@@H](O)[C@]1(C)O` [Erythromycin A], for which the “spectrum of activity in vitro (in words)” value in series [2] is “antibacterial activity mainly against Gram-positive microorganisms”. Further, the “activity against eukaryotic parasites (in words)” value in the series with eukaryotic parasites is given as “active against eukaryotic parasites”.

Turning to `CC[C@H]1OC(=O)[C@H](C)[C@@H](O[C@H]2C[C@@](C)(OC)[C@@H](O)[C@H](C)O2)[C@H](C)[C@@H](O[C@@H]2O[C@H](C)C[C@H](N(C)C)[C@H]2O)[C@](C)(O)C[C@@H](C)C(=NOCCN(CC)CC)[C@H](C)[C@@H](O)[C@]1(C)O` [Erythromycin A 9-[0-[(2-diethylamino)ethyl]oxime]], the “pharmacokinetic properties / bioavailability (in words)” value in series [1] is “better pharmacokinetic properties”. For the same compound, in series [2], the “spectrum of activity in vitro (in words)” value is on record as “comparable to that of Erythromycin A”. The “stability to the acids (in words)” value in series [3] is “superior stability to the acids”.

For the compound `CCCCOc1ccc(CNCCCCCCNCCO/N=C2\[C@H](C)C[C@@](C)(O)[C@H](O[C@@H]3O[C@H](C)C[C@H](N(C)C)[C@H]3O)[C@@H](C)[C@H](O[C@H]3C[C@@](C)(OC)[C@@H](O)[C@H](C)O3)[C@@H](C)C(=O)O[C@H](CC)[C@@](C)(O)[C@H](O)[C@H]2C)cc1` [Compound 26, Erythromycin A (E)-9-[0-[2-[6-[(4-n.butoxyphenyl)methylamino]hexylamino]ethyl]oxime]], the ED50 in series [4] (1 hour after infection) and in [4] (24 hours before infection) was 6.11 mg/kg each time. The MIC in [5] was 0.25 µg/mL (≈ 0.237 µM); in [6], 0.0312 µg/mL; in [7], 0.0078 µg/mL; in [8] it was 0.0156 µg/mL; in series [9], 0.0156 µg/mL; in series [10], 2 µg/mL (≈ 1.9 µM). Moreover, the MIC in [11] and in [12] was 1 µg/mL (≈ 0.949 µM) in each case.

`CC[C@H]1OC(=O)[C@H](C)[C@@H](O[C@H]2C[C@@](C)(OC)[C@@H](O)[C@H](C)O2)[C@H](C)[C@@H](O[C@@H]2O[C@H](C)C[C@H](N(C)C)[C@H]2O)[C@](C)(O)C[C@@H](C)/C(=N\OCCNCCCCCCNCc2ccc(F)cc2)[C@H](C)[C@@H](O)[C@]1(C)O` [Compound 16, Erythromycin A (E)-9-[0-[2-[6-[(4-fluorophenyl)methylamino]hexylamino]ethyl]oxime]]: the ED50 in series [4] (1 hour after infection) turned out to be 3.6 mg/kg; in series [4] (24 hours before infection), 10.2 mg/kg. In addition, the MIC came out at 0.25 µg/mL (≈ 0.25 µM) in series [5]; 0.0156 µg/mL in [6]; 0.0039 µg/mL in [7]; 0.0156 µg/mL in series [8]; 0.0156 µg/mL in series [9]; 8 µg/mL (≈ 8.01 µM) in series [10]. For the same compound, the MIC in [11] worked out at 2 µg/mL (≈ 2 µM); in series [12] it was 4 µg/mL (≈ 4 µM).

Regarding `CC[C@H]1OC(=O)[C@H](C)[C@@H](O[C@H]2C[C@@](C)(OC)[C@@H](O)[C@H](C)O2)[C@H](C)[C@@H](O[C@@H]2O[C@H](C)C[C@H](N(C)C)[C@H]2O)[C@](C)(OC)C[C@@H](C)C(=O)[C@H](C)[C@@H](O)[C@]1(C)O` [Clarithromycin, reference compound], the ED50 in [4] (1 hour after infection) is 3.25 mg/kg; in [4] (24 hours before infection) it was > 50 mg/kg. The “in vivo activity, pulmonary infection (in words)” value in [4] was “inactive”. The MIC in series [5] turned out to be 0.25 µg/mL (≈ 0.334 µM); in series [6] it was 0.0078 µg/mL; in series [7], 0.0078 µg/mL; in [8] it was 0.0078 µg/mL; in series [9], 0.0156 µg/mL; in [10], 128 µg/mL (≈ 171 µM). For the same compound, the MIC in series [11] stood at 64 µg/mL (≈ 85.6 µM); in [12], 1 µg/mL (≈ 1.34 µM).

For `CC[C@H]1OC(=O)[C@H](C)[C@@H](O[C@H]2C[C@@](C)(OC)[C@@H](O)[C@H](C)O2)[C@H](C)[C@@H](O[C@@H]2O[C@H](C)C[C@H](N(C)C)[C@H]2O)[C@](C)(O)C[C@@H](C)/C(=N\OCOCCOC)[C@H](C)[C@@H](O)[C@]1(C)O` [Roxithromycin, Erythromycin A 9-[0-[(2-methoxyethoxy)methyl]oxime], reference compound], the “pharmacokinetic properties / bioavailability (in words)” value in series [1] is recorded as “better pharmacokinetic properties”. The figures for the ED50 in series [4] (1 hour after infection) and in series [4] (24 hours before infection) were 0.9 mg/kg and > 25 mg/kg, respectively. The “in vivo activity, pulmonary infection (in words)” value in series [4] is “inactive”. Moreover, the “spectrum of activity in vitro (in words)” value in series [2] is “comparable to that of Erythromycin A”. The MIC in series [5] came to 1 µg/mL (≈ 1.19 µM); in series [6] it was 0.0625 µg/mL; in series [7], 0.0625 µg/mL; in series [8], 0.0312 µg/mL; in [9] it was 0.0625 µg/mL; in series [10], 256 µg/mL (≈ 306 µM). For the same compound, the MIC was 28 µg/mL (≈ 33.5 µM) in series [11] and 4 µg/mL (≈ 4.78 µM) in series [12]. The “stability to the acids (in words)” value in series [3] is reported as “superior stability to the acids”.

Consider `CC[C@H]1OC(=O)[C@H](C)[C@@H](O[C@H]2C[C@@](C)(OC)[C@@H](O)[C@H](C)O2)[C@H](C)[C@@H](O[C@@H]2O[C@H](C)C[C@H](N(C)C)[C@H]2O)[C@](C)(O)C[C@@H](C)/C(=N\OCCNCCCCCCNCc2cccc(Oc3ccccc3)c2)[C@H](C)[C@@H](O)[C@]1(C)O` [Compound 27, Erythromycin A (E)-9-[0-[2-[6-[(3-phenoxyphenyl)methylamino]hexylamino]ethyl]oxime]], for which the ED50 in series [4] (1 hour after infection) and in series [4] (24 hours before infection) was 15.6 mg/kg throughout. The MIC in series [5] was 0.5 µg/mL (≈ 0.466 µM); in series [6], 0.0156 µg/mL; in [7], 0.0078 µg/mL; in series [8], 0.0078 µg/mL; in [9], 0.0078 µg/mL; in [10] it was 2 µg/mL (≈ 1.86 µM). Moreover, the MIC in series [11] and in series [12] was 1 µg/mL (≈ 0.932 µM) each time.

Consider `CC[C@H]1OC(=O)[C@H](C)[C@@H](O[C@H]2C[C@@](C)(OC)[C@@H](O)[C@H](C)O2)[C@H](C)[C@@H](O[C@@H]2O[C@H](C)C[C@H](N(C)C)[C@H]2O)[C@](C)(O)C[C@@H](C)/C(=N\OCCNCCCCCNCc2ccccc2)[C@H](C)[C@@H](O)[C@]1(C)O` [Compound 10, Erythromycin A (E)-9-[0-[2-[5-(phenylmethylamino)pentylamino]ethyl]oxime]], for which the ED50 in series [4] (1 hour after infection) turned out to be 2.36 mg/kg; in series [4] (24 hours before infection), 5.8 mg/kg. For the same compound, the MIC in series [5] amounted to 0.5 µg/mL (≈ 0.517 µM); in series [6], 0.0078 µg/mL; in series [7], 0.0039 µg/mL; in [8], 0.0156 µg/mL; in series [9], 0.0156 µg/mL; in series [10] it was 16 µg/mL (≈ 16.5 µM). Moreover, the MIC in series [11] and in [12] was 4 µg/mL (≈ 4.14 µM) in each case.
